# From the supplement of paper PMC10307832
# Legend:
# Experiment in all cases: relative viability (nuclei count vs DMSO), 5 days (fraction); higher = more cells survive
# Ruxolitinib + Crizotinib = compound: N#CC[C@H](C1CCCC1)n1cc(-c2ncnc3[nH]ccc23)cn1 [Ruxolitinib] + C[C@@H](Oc1cc(-c2cnn(C3CCNCC3)c2)cnc1N)c1c(Cl)ccc(F)c1Cl [Crizotinib] (partner 1 µM)
# Method in brief: (§1)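 Relative viability divides the nuclei count in treated wells by that in vehicle wells. Lung cancer cell lines were seeded in 1536-well plates, dosed by pin tool the next day, and fixed and stained after 5 days in one step with final 0.05% Triton X-100, 1% formaldehyde and 1 ug/ml Hoechst. Dosing was a single drug or a fixed anchor-drug dose plus five library-drug doses (not always all listed) in √10 steps, and values are medians of duplicate plates imaged at 4×.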
# VE-821 + Luminespib = compound: CS(=O)(=O)c1ccc(-c2cnc(N)c(C(=O)Nc3ccccc3)n2)cc1 [VE-821] + CCNC(=O)c1noc(-c2cc(C(C)C)c(O)cc2O)c1-c1ccc(CN2CCOCC2)cc1 [Luminespib] (partner 0.01 µM)
# Method in brief: as §1
# Vismodegib + Alpelisib = compound: CS(=O)(=O)c1ccc(C(=O)Nc2ccc(Cl)c(-c3ccccn3)c2)c(Cl)c1 [Vismodegib] + Cc1nc(NC(=O)N2CCC[C@H]2C(N)=O)sc1-c1ccnc(C(C)(C)C(F)(F)F)c1 [Alpelisib] (partner 2 µM)
# Method in brief: as §1
# VE-821 + Palbociclib = compound: CS(=O)(=O)c1ccc(-c2cnc(N)c(C(=O)Nc3ccccc3)n2)cc1 [VE-821] + CC(=O)c1c(C)c2cnc(Nc3ccc(N4CCNCC4)cn3)nc2n(C2CCCC2)c1=O [Palbociclib] (partner 0.5 µM)
# Method in brief: as §1
cell line,measurement,setting,value
UMC-11,relative viability,Ruxolitinib + Crizotinib; first compound 0.08 µM,0.622
same,relative viability,Ruxolitinib + Crizotinib; first compound 0.253 µM,0.616
same,relative viability,Ruxolitinib + Crizotinib; first compound 0.8 µM,0.736
same,relative viability,Ruxolitinib + Crizotinib; first compound 2.53 µM,0.736
same,relative viability,Ruxolitinib + Crizotinib; first compound 8 µM,0.668
same,relative viability,VE-821 + Luminespib; first compound 0.08 µM,1.18
same,relative viability,VE-821 + Luminespib; first compound 0.253 µM,0.966
same,relative viability,VE-821 + Luminespib; first compound 0.8 µM,0.966
same,relative viability,VE-821 + Luminespib; first compound 2.53 µM,1.03
same,relative viability,VE-821 + Luminespib; first compound 8 µM,0.493
same,relative viability,Vismodegib + Alpelisib; first compound 0.08 µM,1.01
same,relative viability,Vismodegib + Alpelisib; first compound 0.253 µM,1.01
same,relative viability,Vismodegib + Alpelisib; first compound 0.8 µM,1.05
same,relative viability,Vismodegib + Alpelisib; first compound 2.53 µM,0.957
same,relative viability,Vismodegib + Alpelisib; first compound 8 µM,0.952
same,relative viability,VE-821 + Palbociclib; first compound 0.08 µM,0.339
same,relative viability,VE-821 + Palbociclib; first compound 0.253 µM,0.309
same,relative viability,VE-821 + Palbociclib; first compound 0.8 µM,0.338
same,relative viability,VE-821 + Palbociclib; first compound 2.53 µM,0.377
same,relative viability,VE-821 + Palbociclib; first compound 8 µM,0.299
